Laboratory results published in patent US9618524B2, “Method, composition, isolation and identification of a plaque particle and related biomarker” (Plaxgen Inc., priority 2012, dated 2017).

Columns and labels:
Assay in all cases: Mass spectroscopy proteomics, semi-quantitative binding affinity of serum proteins (plaqueproteome, Table 2)
Settings in all cases: higher number = stronger affinity
[1] = target: T1, Abeta-42 plaque particles (Homo sapiens, UniProt P05067)
T1 construct: Abeta 1-42
Procedure, shortened: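 AD patient serum or plasma (50% in PBS) was incubated with Abeta-42 aggregates (30 μg) for 1 h at 37 °C, then stained with Thioflavin S for 30 min. Labeled particles were FACS-sorted, trypsin/Lys-C digested overnight and analyzed by MS/MS. Sequest searched human UniProt; Scaffold/Protein Prophet validated the identifications.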

[2] = test system: High Density cholesterol (Chl Large) plaque particles; design: species or system human
Procedure, shortened: (§1)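 Read-out is MS/MS protein identification (Sequest, strict trypsin, 20 ppm parent tolerance; Scaffold probabilities) of serum proteins bound to flow-sorted cholesterol plaque particles. These particles formed when 50% atherosclerotic serum was incubated with 30 μg cholesterol aggregates for 1 hr at 37° C.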

[3] = test system: Low density cholesterol (Chl small) plaque particles; design: species or system human
Procedure, shortened: as §1

[4] = target: T2, alpha-synuclein plaque particles (Homo sapiens, UniProt P37840)
T2 construct: 140 amino acids polypeptide
Procedure, shortened: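 AD-subject plasma or serum (800 μL of 50%) mixed with 30 μg preformed alpha-synuclein aggregates for 1 h at 37 °C; Thioflavin S-positive particles isolated by flow sorting. After reduction, acrylamide alkylation and overnight tryptic digestion, serum proteins identified by MS/MS with Sequest and Scaffold.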

Tau plaque particles = test system: Tau plaque particles; design: species or system human
Procedure, shortened: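 Serum or plasma proteins captured on Thioflavin S-labelled Tau plaque particles (Tau-74, Tau-275 oligomers preformed in PBS at 37° C for 2 h; 1 h co-incubation at 37° C) were isolated by FACS sorting, then tryptically digested and identified by MS/MS (Sequest, human UniProt, strict trypsin).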

| Substance | Semi-quantitative analysis of proteins binding to different plaque particles: Abeta-42 [1] | Semi-quantitative analysis of proteins binding to different plaque particles: Chl Large [2] | Semi-quantitative analysis of proteins binding to different plaque particles: Chl small [3] | Semi-quantitative analysis of proteins binding to different plaque particles: Synuclein [4] | Semi-quantitative analysis of proteins binding to different plaque particles: Tau (Tau plaque particles) |
| --- | --- | --- | --- | --- | --- |
| Tubulin beta-4B chain | 0 | 0 | 0 | 0 | 5 |
| Vitamin K-dependent protein S | 0 | 0 | 1 | 0 | 0 |
| Vitronectin | 4 | 4 | 2 | 4 | 4 |
